Test results from patent US20160272992A1, “PROTECTION OF PLANTS AGAINST OXIDATIVE STRESS” (priority 2013, published 2016).

Tested on: Arabidopsis first leaves
Experiment: Abaxial epidermal cell number of first leaves of plants grown on HU
Assay type: in vivo, Arabidopsis thaliana
Conditions: for reduction in epidermal cell number: grown 3 weeks on 1 mM HU, first leaves
Procedure: The smr5 (SALK_100918) and smr7 (SALK_128496) alleles were acquired from the Arabidopsis Biological Research Center. The atm-1, atr-2 and sog1-1 mutants have been described previously (Garcia et al., 2003; Preuss and Britt, 2003; Culligan et al., 2004; Yoshiyama et al., 2009). Unless stated otherwise, plants of Arabidopsis thaliana (L.) Heyhn (ecotype Columbia), were grown under long-day conditions (16 hours of light, 8 hours of darkness) at 22° C. on half-strength Murashige and Skoog (MS) germination medium (Murashige and Skoog, 1962). Arabidopsis plants were treated with HU as described by Cools et al. (2011). For bleomycin treatments, five-day-old seedlings were transferred into liquid MS medium supplemented with 0.3 μg/mL bleomycin. For γ-irradiation treatments, five-day-old in vitro-grown plantlets were irradiated with γ-rays at a dose of 20 Gy. For light treatments, one-week-old seedlings were transferred to continuous high-light conditions (growth rooms kept at 22° C. with 24-hour day/0-hour night cycles and a light intensity of 300-400 μmol m^−2 s^−1) for 2 days, and subsequently retransferred to low-light conditions. The first leaf pair was harvested and incubated in 100% ethanol for epidermis cell drawing as described by De Veylder et al. (2001).
For leaf measurements, first leaves were harvested at 21 days after sowing on control medium, medium supplemented with 1 mM hydroxyurea or 0.3 μg/mL bleomycin. […] The total (blade) area was determined from images digitized directly with a digital camera (Olympus BX51 microscope) mounted on a binocular (Stemi SV 11; Zeiss). From scanned drawing-tube images of the outlines of at least 30 cells of the abaxial epidermis located between 25% to 75% of the distance between the tip and the base of the leaf, halfway between the midrib and the leaf margin, the following parameters were determined: total area of all cells in the drawing and total numbers of pavement and guard cells, from which the average cell area was calculated. […] For confocal microscopy, root meristems were analyzed 2 days after transfer using a Zeiss LSM 510 Laser Scanning Microscope and the LSM Browser version 4.2 software (Zeiss). […] GFP fluorescence was detected with the 488-nm line of an Argon laser. GFP and PI were detected simultaneously by combining the settings indicated above in the sequential scanning facility of the microscope. Acquired images were quantitatively analyzed with the ImageJ v1.45s software (on the World Wide Web at rsbweb.nih.gov/ij/) and Cell-o-Tape plug-ins (French et al., 2012). Chlorophyll a fluorescence parameters were measured using the IMAGING PAM M-Series Chlorofyll Fluorescence (Walz) and associated software. […]

NC(=O)NO [HU, hydroxyurea]
reduction in leaf size and cell number (SMR5^KO SMR7^KO double mutant, 1 mM HU, compared with single knockouts): even less
reduction in epidermal cell number (SMR5^KO plants): 29%
reduction in epidermal cell number (SMR7^KO plants): 30%
reduction in epidermal cell number (control plants (Col-0)): 47%
